Measured values: ChEMBL document CHEMBL4482303, “Test system for measuring mest activity as well as methods and uses involving the same” (2012)

Columns and labels:
[1] = biological target: T1, Mesoderm-specific transcript homolog protein (Homo sapiens) (UniProt Q5EB52); assay: (§1) Inhibition of human recombinant MEST T579B (2 to 335 amino acids) expressed in Sf9 cell membranes assessed as reduction in glycerol 3-phosphate acyltransferase activity at 10 uM using [3H]-glycerol 3-phosphate and palmitoyl CoA incubated for 60 mins by scintillation counting assay relative to control
T1 sequence (whole entry): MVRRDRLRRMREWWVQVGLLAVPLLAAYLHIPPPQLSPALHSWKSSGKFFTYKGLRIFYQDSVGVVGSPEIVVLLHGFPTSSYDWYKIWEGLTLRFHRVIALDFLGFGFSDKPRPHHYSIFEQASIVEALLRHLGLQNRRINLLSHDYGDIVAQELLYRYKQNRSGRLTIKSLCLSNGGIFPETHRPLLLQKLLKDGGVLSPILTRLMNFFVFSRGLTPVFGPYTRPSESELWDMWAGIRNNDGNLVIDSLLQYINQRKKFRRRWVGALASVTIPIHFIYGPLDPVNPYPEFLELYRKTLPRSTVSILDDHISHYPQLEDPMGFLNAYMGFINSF

[2] = biological target: T1, Mesoderm-specific transcript homolog protein (Homo sapiens); assay: (§2) Inhibition of human recombinant MEST T579B (2 to 335 amino acids) expressed in Sf9 cell membranes assessed as reduction in glycerol 3-phosphate acyltransferase activity at 3 uM using [3H]-glycerol 3-phosphate and palmitoyl CoA incubated for 60 mins by scintillation counting assay relative to control
[3] = biological target: T1, Mesoderm-specific transcript homolog protein (Homo sapiens); assay: (§3) Inhibition of human recombinant MEST T579B (2 to 335 amino acids) expressed in Sf9 cell membranes assessed as reduction in glycerol 3-phosphate acyltransferase activity at 1 uM using [3H]-glycerol 3-phosphate and palmitoyl CoA incubated for 60 mins by scintillation counting assay relative to control
[4] = biological target: T1, Mesoderm-specific transcript homolog protein (Homo sapiens); assay: as §1, with “0.3” for “10”
[5] = biological target: T1, Mesoderm-specific transcript homolog protein (Homo sapiens); assay: Inhibition of human recombinant MEST T579B (2 to 335 amino acids) expressed in Sf9 cell membranes assessed as reduction in glycerol 3-phosphate acyltransferase activity using [3H]-glycerol 3-phosphate and palmitoyl CoA incubated for 60 mins by scintillation counting assay
[6] = biological target: T1, Mesoderm-specific transcript homolog protein (Homo sapiens); assay: as §1, with “0.1” for “10”
[7] = biological target: T1, Mesoderm-specific transcript homolog protein (Homo sapiens); assay: as §1, with “0.03” for “10”
[8] = biological target: T2, Glycerol-3-phosphate acyltransferase 1, mitochondrial (Homo sapiens) (UniProt Q9HCL2); assay: Inhibition of GPAT1 (unknown origin) expressed in Sf9 cell membranes assessed as reduction in glycerol 3-phosphate acyltransferase activity at 10 uM using [3H]-glycerol 3-phosphate and palmitoyl CoA incubated for 60 mins by scintillation counting assay relative to control
T2 sequence (whole entry): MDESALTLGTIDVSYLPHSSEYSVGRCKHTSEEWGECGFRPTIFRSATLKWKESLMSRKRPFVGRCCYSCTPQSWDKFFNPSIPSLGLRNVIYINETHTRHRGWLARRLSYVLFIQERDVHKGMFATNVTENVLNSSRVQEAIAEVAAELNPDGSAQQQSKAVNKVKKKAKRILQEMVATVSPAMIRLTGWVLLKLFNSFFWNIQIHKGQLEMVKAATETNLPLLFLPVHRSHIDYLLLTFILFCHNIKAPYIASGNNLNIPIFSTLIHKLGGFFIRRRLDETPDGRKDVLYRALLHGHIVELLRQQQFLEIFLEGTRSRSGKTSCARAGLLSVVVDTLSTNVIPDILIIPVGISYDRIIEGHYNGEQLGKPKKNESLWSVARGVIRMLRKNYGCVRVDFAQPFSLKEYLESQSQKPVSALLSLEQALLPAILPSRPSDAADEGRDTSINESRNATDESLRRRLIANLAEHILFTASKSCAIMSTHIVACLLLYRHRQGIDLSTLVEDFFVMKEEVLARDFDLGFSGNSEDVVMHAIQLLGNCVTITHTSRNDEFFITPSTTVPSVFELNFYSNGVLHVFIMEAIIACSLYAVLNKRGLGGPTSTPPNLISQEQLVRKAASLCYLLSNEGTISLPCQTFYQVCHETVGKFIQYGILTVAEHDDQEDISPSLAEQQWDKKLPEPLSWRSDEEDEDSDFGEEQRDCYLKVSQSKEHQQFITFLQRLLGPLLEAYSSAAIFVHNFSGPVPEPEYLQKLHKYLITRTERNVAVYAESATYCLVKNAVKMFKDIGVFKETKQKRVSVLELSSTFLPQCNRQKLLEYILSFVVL

[9] = biological target: T2, Glycerol-3-phosphate acyltransferase 1, mitochondrial (Homo sapiens); assay: Inhibition of GPAT1 (unknown origin) expressed in Sf9 cell membranes assessed as reduction in glycerol 3-phosphate acyltransferase activity at 3 uM using [3H]-glycerol 3-phosphate and palmitoyl CoA incubated for 60 mins by scintillation counting assay relative to control
[10] = biological target: T2, Glycerol-3-phosphate acyltransferase 1, mitochondrial (Homo sapiens); assay: Inhibition of GPAT1 (unknown origin) expressed in Sf9 cell membranes assessed as reduction in glycerol 3-phosphate acyltransferase activity at 1 uM using [3H]-glycerol 3-phosphate and palmitoyl CoA incubated for 60 mins by scintillation counting assay relative to control
[11] = biological target: T2, Glycerol-3-phosphate acyltransferase 1, mitochondrial (Homo sapiens); assay: Inhibition of GPAT1 (unknown origin) expressed in Sf9 cell membranes assessed as reduction in glycerol 3-phosphate acyltransferase activity at 0.3 uM using [3H]-glycerol 3-phosphate and palmitoyl CoA incubated for 60 mins by scintillation counting assay relative to control
[12] = biological target: T2, Glycerol-3-phosphate acyltransferase 1, mitochondrial (Homo sapiens); assay: Inhibition of GPAT1 (unknown origin) expressed in Sf9 cell membranes assessed as reduction in glycerol 3-phosphate acyltransferase activity at 0.1 uM using [3H]-glycerol 3-phosphate and palmitoyl CoA incubated for 60 mins by scintillation counting assay relative to control
[13] = biological target: T2, Glycerol-3-phosphate acyltransferase 1, mitochondrial (Homo sapiens); assay: Inhibition of GPAT1 (unknown origin) expressed in Sf9 cell membranes assessed as reduction in glycerol 3-phosphate acyltransferase activity at 0.03 uM using [3H]-glycerol 3-phosphate and palmitoyl CoA incubated for 60 mins by scintillation counting assay relative to control
[14] = biological target: T3, Glycerol-3-phosphate acyltransferase 3 (Homo sapiens) (UniProt Q53EU6); assay: Inhibition of GPAT3 (unknown origin) expressed in Sf9 cell membranes assessed as reduction in glycerol 3-phosphate acyltransferase activity at 10 uM using [3H]-glycerol 3-phosphate and palmitoyl CoA incubated for 60 mins by scintillation counting assay relative to control
T3 sequence (whole entry): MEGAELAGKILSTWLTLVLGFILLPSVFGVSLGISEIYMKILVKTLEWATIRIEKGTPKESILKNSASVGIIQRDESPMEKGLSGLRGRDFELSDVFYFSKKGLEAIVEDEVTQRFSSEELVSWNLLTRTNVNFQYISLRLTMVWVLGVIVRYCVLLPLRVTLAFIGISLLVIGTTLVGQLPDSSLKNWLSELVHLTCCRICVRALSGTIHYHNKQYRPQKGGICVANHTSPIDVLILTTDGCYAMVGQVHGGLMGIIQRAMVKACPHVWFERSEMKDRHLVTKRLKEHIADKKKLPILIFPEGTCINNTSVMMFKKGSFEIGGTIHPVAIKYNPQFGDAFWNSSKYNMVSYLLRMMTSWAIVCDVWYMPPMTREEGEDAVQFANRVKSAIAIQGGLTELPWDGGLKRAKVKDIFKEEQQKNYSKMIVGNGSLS

[15] = biological target: T3, Glycerol-3-phosphate acyltransferase 3 (Homo sapiens); assay: Inhibition of GPAT3 (unknown origin) expressed in Sf9 cell membranes assessed as reduction in glycerol 3-phosphate acyltransferase activity at 3 uM using [3H]-glycerol 3-phosphate and palmitoyl CoA incubated for 60 mins by scintillation counting assay relative to control
[16] = biological target: T3, Glycerol-3-phosphate acyltransferase 3 (Homo sapiens); assay: Inhibition of GPAT3 (unknown origin) expressed in Sf9 cell membranes assessed as reduction in glycerol 3-phosphate acyltransferase activity at 1 uM using [3H]-glycerol 3-phosphate and palmitoyl CoA incubated for 60 mins by scintillation counting assay relative to control
[17] = biological target: T3, Glycerol-3-phosphate acyltransferase 3 (Homo sapiens); assay: Inhibition of GPAT3 (unknown origin) expressed in Sf9 cell membranes assessed as reduction in glycerol 3-phosphate acyltransferase activity at 0.3 uM using [3H]-glycerol 3-phosphate and palmitoyl CoA incubated for 60 mins by scintillation counting assay relative to control
[18] = biological target: T3, Glycerol-3-phosphate acyltransferase 3 (Homo sapiens); assay: Inhibition of GPAT3 (unknown origin) expressed in Sf9 cell membranes assessed as reduction in glycerol 3-phosphate acyltransferase activity at 0.1 uM using [3H]-glycerol 3-phosphate and palmitoyl CoA incubated for 60 mins by scintillation counting assay relative to control
[19] = biological target: T3, Glycerol-3-phosphate acyltransferase 3 (Homo sapiens); assay: Inhibition of GPAT3 (unknown origin) expressed in Sf9 cell membranes assessed as reduction in glycerol 3-phosphate acyltransferase activity at 0.03 uM using [3H]-glycerol 3-phosphate and palmitoyl CoA incubated for 60 mins by scintillation counting assay relative to control
[20] = biological target: T4, Glycerol-3-phosphate acyltransferase 4 (Homo sapiens) (UniProt Q86UL3); assay: Inhibition of GPAT4 (unknown origin) expressed in Sf9 cell membranes assessed as reduction in glycerol 3-phosphate acyltransferase activity at 10 uM using [3H]-glycerol 3-phosphate and palmitoyl CoA incubated for 60 mins by scintillation counting assay relative to control
T4 sequence (whole entry): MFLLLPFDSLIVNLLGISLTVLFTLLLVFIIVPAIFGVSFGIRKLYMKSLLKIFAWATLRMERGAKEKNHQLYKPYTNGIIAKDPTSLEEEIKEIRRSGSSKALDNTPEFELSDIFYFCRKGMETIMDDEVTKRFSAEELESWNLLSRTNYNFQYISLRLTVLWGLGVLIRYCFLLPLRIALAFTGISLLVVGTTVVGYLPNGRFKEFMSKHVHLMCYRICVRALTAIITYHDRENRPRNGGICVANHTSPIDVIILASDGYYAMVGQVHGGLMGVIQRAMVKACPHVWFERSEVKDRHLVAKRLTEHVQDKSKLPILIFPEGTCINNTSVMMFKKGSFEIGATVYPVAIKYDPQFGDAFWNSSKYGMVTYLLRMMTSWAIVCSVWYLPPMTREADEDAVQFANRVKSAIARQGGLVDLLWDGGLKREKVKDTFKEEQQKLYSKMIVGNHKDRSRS

[21] = biological target: T4, Glycerol-3-phosphate acyltransferase 4 (Homo sapiens); assay: Inhibition of GPAT4 (unknown origin) expressed in Sf9 cell membranes assessed as reduction in glycerol 3-phosphate acyltransferase activity at 3 uM using [3H]-glycerol 3-phosphate and palmitoyl CoA incubated for 60 mins by scintillation counting assay relative to control
[22] = biological target: T4, Glycerol-3-phosphate acyltransferase 4 (Homo sapiens); assay: Inhibition of GPAT4 (unknown origin) expressed in Sf9 cell membranes assessed as reduction in glycerol 3-phosphate acyltransferase activity at 1 uM using [3H]-glycerol 3-phosphate and palmitoyl CoA incubated for 60 mins by scintillation counting assay relative to control
[23] = biological target: T4, Glycerol-3-phosphate acyltransferase 4 (Homo sapiens); assay: Inhibition of GPAT4 (unknown origin) expressed in Sf9 cell membranes assessed as reduction in glycerol 3-phosphate acyltransferase activity at 0.3 uM using [3H]-glycerol 3-phosphate and palmitoyl CoA incubated for 60 mins by scintillation counting assay relative to control
[24] = biological target: T4, Glycerol-3-phosphate acyltransferase 4 (Homo sapiens); assay: Inhibition of GPAT4 (unknown origin) expressed in Sf9 cell membranes assessed as reduction in glycerol 3-phosphate acyltransferase activity at 0.1 uM using [3H]-glycerol 3-phosphate and palmitoyl CoA incubated for 60 mins by scintillation counting assay relative to control
[25] = biological target: T4, Glycerol-3-phosphate acyltransferase 4 (Homo sapiens); assay: Inhibition of GPAT4 (unknown origin) expressed in Sf9 cell membranes assessed as reduction in glycerol 3-phosphate acyltransferase activity at 0.03 uM using [3H]-glycerol 3-phosphate and palmitoyl CoA incubated for 60 mins by scintillation counting assay relative to control
[26] = biological target: T1, Mesoderm-specific transcript homolog protein (Homo sapiens); assay: as §1, with “T580B (11” for “T579B (2”
[27] = biological target: T1, Mesoderm-specific transcript homolog protein (Homo sapiens); assay: as §2, with “T580B (11” for “T579B (2”
[28] = biological target: T1, Mesoderm-specific transcript homolog protein (Homo sapiens); assay: as §3, with “T580B (11” for “T579B (2”
[29] = biological target: T1, Mesoderm-specific transcript homolog protein (Homo sapiens); assay: as §1, with “T580B (11” for “T579B (2”, “0.3” for “10”
[30] = biological target: T1, Mesoderm-specific transcript homolog protein (Homo sapiens); assay: as §1, with “T580B (11” for “T579B (2”, “0.1” for “10”
[31] = biological target: T1, Mesoderm-specific transcript homolog protein (Homo sapiens); assay: as §1, with “T580B (11” for “T579B (2”, “0.03” for “10”

With `O=C(CO)COP(=O)(O)O` as the molecule, how does the inhibition [1] read?
The inhibition was 69%.

And the inhibition [2]?
Its inhibition is 51%.

What about the inhibition [3] of the same molecule?
Its inhibition is 27%.

And the inhibition [4]?
The inhibition was 24%.

And the inhibition [5]?
The inhibition was “Dose-dependent effect”.

What about the inhibition [6] of the same molecule?
The inhibition was -6%.

And the inhibition [7]?
The inhibition was -5%.

And the inhibition [8]?
Its inhibition is 72%.

And the inhibition [9]?
Its inhibition is 47%.

What about the inhibition [10] of the same molecule?
The inhibition was 29%.

And the inhibition [11]?
Its inhibition is 11%.

And the inhibition [12]?
The inhibition was 10%.

What about the inhibition [13] of the same molecule?
Its inhibition is 4%.

What about the inhibition [14] of the same molecule?
Its inhibition is 57%.

And the inhibition [15]?
The inhibition was 38%.

What about the inhibition [16] of the same molecule?
The inhibition was 26%.

And the inhibition [17]?
The inhibition was 12%.

And the inhibition [18]?
The inhibition was -4%.

What about the inhibition [19] of the same molecule?
The inhibition was -9%.

And the inhibition [20]?
The inhibition was 54%.

What about the inhibition [21] of the same molecule?
The inhibition was 29%.

What about the inhibition [22] of the same molecule?
The inhibition was 9%.

What about the inhibition [23] of the same molecule?
Its inhibition is 15%.

What about the inhibition [24] of the same molecule?
The inhibition was -2%.

And the inhibition [25]?
The inhibition was 6%.

And the inhibition [26]?
Its inhibition is 76%.

And the inhibition [27]?
Its inhibition is 45%.

What about the inhibition [28] of the same molecule?
The inhibition was 18%.

And the inhibition [29]?
The inhibition was 8%.

What about the inhibition [30] of the same molecule?
Its inhibition is 10%.

What about the inhibition [31] of the same molecule?
The inhibition was -6%.
